Values quoted from earlier work in patent publication US10751291B2, “Nanoparticulate compositions comprising interferon gamma and losartan for immunotherapy” (Yale University, priority 2013, dated 2020).

Conditions: oral administration

oral absorption: well absorbed
SMILES: CCCCc1nc(Cl)c(CO)n1Cc1ccc(-c2ccccc2-c2nn[nH]n2)cc1 [Losartan]
